Assay results: patent US20230024302A1, “2,3,5-TRISUBSTITUTED PYRAZOLO[1,5-A]PYRIMIDINE COMPOUNDS” (Arcus Biosciences, Inc., priority 2019, published 2023)

Columns and labels:
PI3Kγ = molecular target: T1, PI3Kγ (Homo sapiens, UniProt P48736); assay: PI3Kγ cellular assay in THP-1 cells (AKT pS473 AlphaLISA); assay type: cell-based; conditions: Table 1, rhMCP-1 stimulated AKT pS473, read-out: cellular potency (PI3Kγ IC50)
T1 construct: host or cells: THP-1
Description: Twenty microliters of serum starved THP-1 cells were added to the compound plate in serum free DMEM at a density of 9×10^6 cells per ml. Final assay conditions comprised 1.8×10^5 THP-1 cells per well with test compounds in 2% DMSO across a concentration range from 4 nM to 30 μM. […] Briefly, 10 μL of 4× lysis buffer was added to cells after stimulation. Following 60 min incubation at rt, 10 μL of cell lysate was transferred to a fresh 384-well Opti-plate to which 5 μL of AlphaLisa acceptor beads and 5 μL of AlphaLisa donor beads had been added. […] PI3Kγ activity was evaluated as a correlate of endogenous AKT phosphorylation levels. Percentage maximum activity in each test well was calculated based on DMSO (100% activity) and positive control treated cell wells (0% activity). The potencies (IC50's) of test compounds were determined using a standard 4-parameter fit non-linear regression fit.

PI3Kγ (p120γ) = molecular target: T2, PI3Kγ (p120γ) (Homo sapiens, UniProt P48736); assay: Inhibition of PI3K kinase activity (ADP Glo), PI3Kγ; conditions: Table 1, p120γ, read-out: biochemical potency (PI3Kγ IC50)
T2 construct: purchased Promega V1761
T2 sequence (P48736 whole entry): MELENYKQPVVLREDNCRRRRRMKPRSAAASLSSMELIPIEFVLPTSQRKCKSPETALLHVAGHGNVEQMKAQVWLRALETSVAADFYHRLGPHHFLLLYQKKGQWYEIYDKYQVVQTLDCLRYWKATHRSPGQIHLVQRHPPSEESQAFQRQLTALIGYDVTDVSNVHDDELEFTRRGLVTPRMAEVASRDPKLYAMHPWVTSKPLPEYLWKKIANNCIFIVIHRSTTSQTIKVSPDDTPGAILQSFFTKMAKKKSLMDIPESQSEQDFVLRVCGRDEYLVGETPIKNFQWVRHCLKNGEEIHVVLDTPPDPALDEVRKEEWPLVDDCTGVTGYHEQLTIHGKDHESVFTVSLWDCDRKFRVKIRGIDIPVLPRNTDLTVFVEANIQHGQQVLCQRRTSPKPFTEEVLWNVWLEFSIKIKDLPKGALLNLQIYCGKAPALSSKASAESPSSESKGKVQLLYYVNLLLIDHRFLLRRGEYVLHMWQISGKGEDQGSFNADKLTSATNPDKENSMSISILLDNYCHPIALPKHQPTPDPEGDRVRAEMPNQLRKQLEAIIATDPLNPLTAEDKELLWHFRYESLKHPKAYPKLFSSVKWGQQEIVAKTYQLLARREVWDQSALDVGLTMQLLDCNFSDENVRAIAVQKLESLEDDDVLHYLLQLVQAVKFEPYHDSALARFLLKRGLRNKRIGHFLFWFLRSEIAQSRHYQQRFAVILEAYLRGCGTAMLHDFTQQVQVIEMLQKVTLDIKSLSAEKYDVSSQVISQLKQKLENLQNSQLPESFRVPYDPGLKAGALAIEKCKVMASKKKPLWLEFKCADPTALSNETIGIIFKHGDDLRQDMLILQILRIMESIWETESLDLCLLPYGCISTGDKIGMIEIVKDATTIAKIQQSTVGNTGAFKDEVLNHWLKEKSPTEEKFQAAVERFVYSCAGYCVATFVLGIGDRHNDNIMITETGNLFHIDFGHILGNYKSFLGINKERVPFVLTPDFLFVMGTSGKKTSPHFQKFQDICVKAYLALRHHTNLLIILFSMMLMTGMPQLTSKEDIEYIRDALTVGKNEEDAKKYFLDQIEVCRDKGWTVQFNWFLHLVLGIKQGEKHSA
Description: Compounds were evaluated to determine the potency with which they inhibited the kinase activity of the Class I PI3K subunits p110α/p85α (Promega, Cat #V1721), p110β/p85α (Promega, Cat #V1751), p120γ (Promega, Cat #V1761) and p110δ/p85α (Promega, Cat #V1771). Activity was determined as a function of ADP (adenosine diphosphate) generated from ATP consumed during the phosphorylation of Phosphatidylinositol 4,5-bisphosphate (PIP2) (Promega, Cat #V1701) to yield Phosphatidylinositol (3,4,5)-trisphosphate (PIP3). ADP levels in the assay mixture at the end of the reaction were quantitated using ADP Glo (Promega, Cat #V9103) according to the manufacturer's recommended protocol.
Enzyme was prepared for each of the PI3K subunits in 100 mM HEPES, pH 7.4, 100 mM NaCl, 6 mM MgCl2 and 0.05% BSA. p110α/p85α was prepared at 2 nM (2×), p110β/p85α was prepared at 7 nM (2×), p120γ was prepared at 8 nM (2×) and p110δ/p85α was prepared at 2 nM (2×). Five microliters of 2× enzyme dilution of each PI3K subunit were added to a 384-well white Opti-plates pre-dispensed with compound and allowed to incubate for 1 h at rt. A substrate mix containing 0.1 mg/ml (2×) of PIP2 and 50 μM (2×) ATP (Promega, Cat #V915) was prepared in 25 mM HEPES and 0.5 mM EGTA. Reactions were initiated by addition of 5 μl of 2× substrate mix to each well of the plates containing various PI3K isoforms and allowed to proceed for 60 min at rt. Ten microliters of ADP Glo reagent 1 were added to the wells of each plate and allowed to incubate at rt for 45 min according to the manufacturer's directions. Following incubation, 20 μl of ADP Glo reagent 2 was added to each plate and allowed to incubate for an additional 45 min. Luminescent signal, generated by ADP Glo, was quantified by reading on a Perkin Elmer Envision multimode reader. Compound potencies (IC50's) were determined using a standard 4-parameter fit non-linear regression fit.

T1 sequence (P48736 whole entry): as above

SMILES | IC50 (PI3Kγ) | IC50 (PI3Kγ (p120γ))
Cc1cc(-c2ccn3nc(N)c(C(=O)N[C@H]4CC[C@@](C)(O)CC4)c3n2)cc2c1C(=O)N([C@@H](C)C1CC1)C2 [Example 2, 2-Amino-5-{2-[(1S)-1-cyclopropylethyl]-7-methyl-1-oxo-2,3-dihydro-1H-isoindol-5-yl}-N-[cis-4-hydroxy-4-methylcyclohexyl]pyrazolo[1,5-a]pyrimidine-3-carboxamide] | < 100 nM | < 100 nM
Cc1cc(-c2ccn3nc(N)c(C(=O)N[C@H]4CC[C@H](O)C4)c3n2)cc2c1C(=O)N([C@@H](C)C1CC1)C2 [Example 3, 2-Amino-5-{2-[(1S)-1-cyclopropylethyl]-7-methyl-1-oxo-2,3-dihydro-1H-isoindol-5-yl}-N-[(1S,3S)-3-hydroxycyclopentyl]pyrazolo[1,5-a]pyrimidine-3-carboxamide] | < 100 nM | < 100 nM
Cc1cc(-c2ccn3nc(N)c(C(=O)NC[C@H]4C[C@H](O)C4)c3n2)cc2c1C(=O)N([C@@H](C)C1CC1)C2 [Example 4] | < 100 nM | < 100 nM
Cc1cc(-c2ccn3nc(N)c(C(=O)N[C@@H]4CC[C@@H](O)C4)c3n2)cc2c1C(=O)N([C@@H](C)C1CC1)C2 [Example 5, 2-Amino-5-{2-[(1S)-1-cyclopropylethyl]-7-methyl-1-oxo-2,3-dihydro-1H-isoindol-5-yl}-N-[(1R,3R)-3-hydroxycyclopentyl]pyrazolo[1,5-a]pyrimidine-3-carboxamide] | < 100 nM | < 100 nM
Cc1cc(-c2ccn3nc(N)c(C(=O)N[C@H]4C[C@](C)(O)C4)c3n2)cc2c1C(=O)N([C@@H](C)C1CC1)C2 [Example 6, 2-Amino-5-{2-[(1S)-1-cyclopropylethyl]-7-methyl-1-oxo-2,3-dihydro-1H-isoindol-5-yl}-N-[trans-3-hydroxy-3-methylcyclobutyl]pyrazolo[1,5-a]pyrimidine-3-carboxamide] | < 100 nM | < 100 nM

The remaining lines, values ahead:

IC50 (PI3Kγ) | IC50 (PI3Kγ (p120γ)) | SMILES
< 100 nM | < 100 nM | Cc1cc(-c2ccn3nc(N)c(C(=O)N[C@H]4CC[C@](C)(O)CC4)c3n2)cc2c1C(=O)N([C@@H](C)C1CC1)C2 [Example 7, 2-Amino-5-{2-[(1S)-1-cyclopropylethyl]-7-methyl-1-oxo-2,3-dihydro-1H-isoindol-5-yl}-N-[trans-4-hydroxy-4-methylcyclohexyl]pyrazolo[1,5-a]pyrimidine-3-carboxamide]
< 100 nM | < 100 nM | Cc1cc(-c2ccn3nc(N)c(C(=O)N[C@@H]4CCC[C@H]4O)c3n2)cc2c1C(=O)N([C@@H](C)C1CC1)C2 [Example 8, 2-Amino-5-{2-[(1S)-1-cyclopropylethyl]-7-methyl-1-oxo-2,3-dihydro-1H-isoindol-5-yl}-N-[(1R,2R)-2-hydroxycyclopentyl]pyrazolo[1,5-a]pyrimidine-3-carboxamide]
< 100 nM | < 100 nM | Cc1cc(-c2ccn3nc(N)c(C(=O)N[C@H]4CCC[C@@H](O)C4)c3n2)cc2c1C(=O)N([C@@H](C)C1CC1)C2 [Example 9, 2-Amino-5-{2-[(1S)-1-cyclopropylethyl]-7-methyl-1-oxo-2,3-dihydro-1H-isoindol-5-yl}-N-[(1S,3R)-3-hydroxycyclohexyl]pyrazolo[1,5-a]pyrimidine-3-carboxamide]
< 100 nM | < 100 nM | Cc1cc(-c2ccn3nc(N)c(C(=O)N[C@H]4CNC(=O)C4)c3n2)cc2c1C(=O)N([C@@H](C)C1CC1)C2 [Example 10, 2-Amino-5-{2-[(1S)-1-cyclopropylethyl]-7-methyl-1-oxo-2,3-dihydro-1H-isoindol-5-yl}-N-[(3R)-5-oxopyrrolidin-3-yl]pyrazolo[1,5-a]pyrimidine-3-carboxamide]
< 100 nM | < 100 nM | Cc1cc(-c2ccn3nc(N)c(C(=O)N[C@@H]4CCC[C@@H](O)C4)c3n2)cc2c1C(=O)N([C@@H](C)C1CC1)C2 [Example 11, 2-Amino-5-{2-[(1S)-1-cyclopropylethyl]-7-methyl-1-oxo-2,3-dihydro-1H-isoindol-5-yl}-N-[(1R,3R)-3-hydroxycyclohexyl]pyrazolo[1,5-a]pyrimidine-3-carboxamide]
